The target of this assay is CRACM1/Orai1 (Homo sapiens, UniProt Q96D31). Type of assay: cell-based.

Our source for the IC50 values is PMC2905153 (Cell calcium, 2009).

Chain of CRACM1/Orai1 (Q96D31 whole entry): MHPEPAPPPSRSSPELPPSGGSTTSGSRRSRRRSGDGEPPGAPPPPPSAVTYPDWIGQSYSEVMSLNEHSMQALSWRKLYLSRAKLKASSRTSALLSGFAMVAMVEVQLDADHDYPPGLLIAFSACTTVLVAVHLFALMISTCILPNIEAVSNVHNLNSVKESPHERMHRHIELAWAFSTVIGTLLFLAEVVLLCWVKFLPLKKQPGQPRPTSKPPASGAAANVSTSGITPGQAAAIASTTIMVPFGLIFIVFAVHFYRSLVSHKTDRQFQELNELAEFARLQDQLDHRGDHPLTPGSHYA
Chain of CRACM1/Orai1 (Q13586 23-685 partner): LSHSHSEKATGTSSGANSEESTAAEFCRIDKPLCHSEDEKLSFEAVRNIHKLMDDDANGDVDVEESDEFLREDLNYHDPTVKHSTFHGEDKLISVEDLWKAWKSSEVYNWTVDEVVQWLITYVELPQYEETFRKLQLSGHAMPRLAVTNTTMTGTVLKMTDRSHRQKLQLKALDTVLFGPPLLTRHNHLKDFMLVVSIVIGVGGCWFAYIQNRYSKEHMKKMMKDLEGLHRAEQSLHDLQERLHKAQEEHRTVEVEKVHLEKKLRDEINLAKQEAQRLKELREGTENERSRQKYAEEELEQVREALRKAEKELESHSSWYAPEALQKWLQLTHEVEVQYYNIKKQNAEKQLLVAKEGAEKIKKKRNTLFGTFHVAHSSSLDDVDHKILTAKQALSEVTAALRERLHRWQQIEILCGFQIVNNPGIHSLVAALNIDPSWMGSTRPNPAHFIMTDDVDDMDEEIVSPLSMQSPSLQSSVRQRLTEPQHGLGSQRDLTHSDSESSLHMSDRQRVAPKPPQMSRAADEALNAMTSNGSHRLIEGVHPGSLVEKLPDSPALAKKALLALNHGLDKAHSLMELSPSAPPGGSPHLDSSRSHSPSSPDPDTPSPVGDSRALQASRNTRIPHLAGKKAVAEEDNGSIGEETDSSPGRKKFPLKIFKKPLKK

In general, IC50 refers to the concentration that gives 50% inhibition. For the substance DPB162-AE, 86 ± 21 nM corresponded to half-maximal inhibition (IC50).
The same measure for DPB163-AE: 170 ± 68 nM.
